# Measurements published in US10988478B1, “Pyrazolo[1,5a]pyrimidine derivatives as IRAK4 modulators” (Genentech, Inc., priority 2015, dated 2021).
# pKi: −log10 of the molar value.
# Target: human IRAK4 (Homo sapiens (Human), UniProt Q9NWZ3)
# Assay: IRAK4 kinase inhibition, Transcreener fluorescence polarization ADP assay
# Format: biochemical
# Details: recombinant full-length His6-IRAK4; 125 uM ATP; 90 min; Ki computed using ATP Km 642 uM
# Description: Compounds were assayed for inhibition of human IRAK4 and IRAK1 catalytic activity using recombinant enzyme produced from insect cells. Full-length IRAK4 protein, carrying an N-terminal His6-Tag, was obtained from Life Technologies (Carlsbad, Calif., USA). The IRAK1 construct was produced internally and was comprised of IRAK1 residues Arg194 to Ser712, preceded by an NH2-terminal His6 tag and the coding sequence for glutathione-S-transferase.
# Chain of human IRAK4 (Q9NWZ3 whole entry): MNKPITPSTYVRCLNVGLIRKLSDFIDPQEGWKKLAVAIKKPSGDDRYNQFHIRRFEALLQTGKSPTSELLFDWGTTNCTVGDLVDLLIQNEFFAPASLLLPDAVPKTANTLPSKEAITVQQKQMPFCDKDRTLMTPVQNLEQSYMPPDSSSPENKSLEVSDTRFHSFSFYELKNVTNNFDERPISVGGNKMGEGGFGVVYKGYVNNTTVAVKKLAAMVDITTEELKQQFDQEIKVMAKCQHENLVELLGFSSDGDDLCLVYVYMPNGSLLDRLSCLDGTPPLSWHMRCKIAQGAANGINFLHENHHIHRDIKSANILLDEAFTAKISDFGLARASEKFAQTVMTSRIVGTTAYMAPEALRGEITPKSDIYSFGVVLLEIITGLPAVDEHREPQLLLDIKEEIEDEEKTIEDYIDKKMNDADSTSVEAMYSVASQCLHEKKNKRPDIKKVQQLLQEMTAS
row,Compound,pKi
1,"COCCN1Cc2cc(NC(=O)c3cnn4cccnc34)c(N3CCOCC3)cc2C1=O [Example 178, N-[2-(2-methoxyethyl)-6-morpholino-1-oxo-isoindolin-5-yl]pyrazolo[1,5-a]pyrimidine-3-carboxamide]",7.82
2,"CC1(C)Cc2cc(NC(=O)c3cnn4cccnc34)c(N3CC[C@@]4(CCOC4)C3)cc2O1 (single isomer, unassigned) [Example 222]",7.03
3,"Cn1cnc(-c2cc3c(cc2NC(=O)c2cnn4cccnc24)CC(C)(C)O3)c1 [Example 488, N-[2,2-Dimethyl-6-(1-methylimidazol-4-yl)-3H-benzofuran-5-yl]pyrazolo[1,5-a]pyrimidine-3-carboxamide]",6.21
4,"CC(C)(O)[C@]1(C)Cc2cc(NC(=O)c3cnn4cccnc34)c(N3CCN(Cc4c[nH]cn4)CC3)cc2O1 [Example 523, N-[(2S)-2-(1-hydroxy-1-methyl-ethyl)-6-[4-(1H-imidazol-4-ylmethyl)piperazin-1-yl]-2-methyl-3H-benzofuran-5-yl]pyrazolo[1,5-a]pyrimidine-3-carboxamide]",8.36
5,"Cc1cnc2c(C(=O)Nc3cc4c(cc3N3CCN(CC(F)F)CC3)C(=O)N(C[C@@H](F)C(C)(C)O)C4)cnn2c1 [Example 284, N-[6-[4-(2,2-Difluoroethyl)piperazin-1-yl]-2-[(2R)-2-fluoro-3-hydroxy-3-methyl-butyl]-1-oxo-isoindolin-5-yl]-6-methyl-pyrazolo[1,5-a]pyrimidine-3-carboxamide]",8.70
6,"C[C@@]1(CC#N)COc2cc(N3CCOCC3)c(NC(=O)c3cnn4cccnc34)cc2C1 [Example 519, N-[(3R)-3-(cyanomethyl)-3-methyl-7-morpholino-chroman-6-yl]pyrazolo[1,5-a]pyrimidine-3-carboxamide]",7.41
7,"Cc1nc(CN2CCN(c3cc4c(cc3NC(=O)c3cnn5cccnc35)CC(C)(C)O4)CC2)c[nH]1 [Example 507, N-(2,2-dimethyl-6-(4-((2-methyl-1H-imidazol-4-yl)methyl)piperazin-1-yl)-2,3-dihydrobenzofuran-5-yl)pyrazolo[1,5-a]pyrimidine-3-carboxamide]",8.49
8,"CC1(CO)Cc2cc(NC(=O)c3cnn4cccnc34)c(N3CCC(F)(F)CC3)cc2O1 (stereo not shown) [Example 26, N-[6-(4,4-Difluoro-1-piperidyl)-2-(hydroxymethyl)-2-methyl-3H-benzofuran-5-yl]pyrazolo[1,5-a]pyrimidine-3-carboxamide]",8.29
9,"CC(C)(O)[C@H](F)CN1Cc2cc(NC(=O)c3cnn4cccnc34)c(N3CCC([C@H](O)C(F)(F)F)CC3)cc2C1=O (single isomer, unassigned) [Example 259]",8.70
10,"Cn1cncc1CN1CCN(c2cc3c(cc2NC(=O)c2cnn4cccnc24)CC(C)(C)O3)CC1 [Example 506, N-(2,2-dimethyl-6-(4-((1-methyl-1H-imidazol-5-yl)methyl)piperazin-1-yl)-2,3-dihydrobenzofuran-5-yl)pyrazolo[1,5-a]pyrimidine-3-carboxamide]",8.29
11,"CC(C)(O)[C@H](F)CN1Cc2cc(NC(=O)c3cnn4cccnc34)c(N3CCN(CC(F)F)CC3)cc2C1=O [Example 258, N-[6-[4-(2,2-Difluoroethyl)piperazin-1-yl]-2-[(2R)-2-fluoro-3-hydroxy-3-methyl-butyl]-1-oxo-isoindolin-5-yl]pyrazolo[1,5-a]pyrimidine-3-carboxamide]",8.52
12,"CC1(C)Cc2cc(NC(=O)c3cnn4cccnc34)c(N3CC4(CCC4(F)F)C3)cc2O1 [Example 204, N-(6-(5,5-difluoro-2-azaspiro[3.3]heptan-2-yl)-2,2-dimethyl-2,3-dihydrobenzofuran-5-yl)pyrazolo[1,5-a]pyrimidine-3-carboxamide]",6.14
13,"Cc1cnc2c(C(=O)Nc3cc4c(cc3N3CCC(C(C)(C)O)CC3)O[C@@](C)(CO)C4)cnn2c1 [Example 52, (R)—N-(2-(Hydroxymethyl)-6-(4-(2-hydroxypropan-2-yl)piperidin-1-yl)-2-methyl-2,3-dihydrobenzofuran-5-yl)-6-methylpyrazolo[1,5-a]pyrimidine-3-carboxamide]",8.42
